Like-named read-outs stand apart in the source and are kept apart here.
How the values were obtained:
A2780cis cells [1] = test: MTT cellular viability assay, A2780cis; type: cell-based, human; conditions: for RF (IC50 A2780cis/IC50 A2780): Resistance factor defined as IC50(resistant)/IC50(sensitive); for IC50: A2780cis, MTT, 72 h
Protocol: (§1) Cell lines A2780 (human ovarian carcinoma, ECACC cat. No. 93112519), A2780cis (subline resistant to cisplatin, ECACC cat. […] All cell lines were maintained in a humidified incubator, at 37 °C and 5% CO2. The cell lines A2780 and A2780cis were grown as monolayers, and cultures were detached with trypsin and renewed every 3–4 days. Toledo and Toledo-cis were grown in suspension; the cultures were renewed every 3–4 days. The Toledo cell line was kindly provided by Prof. […] The cancer cells were seeded in 24-well plates, with 1 mL of cell suspension per well, in the following densities: A2780—10^4 cells/mL; […] Lymphocytes were seeded in 48-well plates, 0.5 mL of cell suspension per well, at −2 × 10^5 cells/mL. The cultures were left overnight to adapt. The next day, the tested compounds were added, pre-dissolved in DMF, and then in a complete culture medium, at concentrations two-fold higher than the final ones. The resulting solutions were added to cell cultures to obtain the demanded concentration. Stock solutions of the compounds were freshly made before every experiment. The final concentration of the solvents in culture medium was 0.2% v/v. […] Then the culture medium was removed, and the purple formazan crystals were dissolved in DMSO. The absorbance was measured at 540 nm on a Spectrostar Nano spectrophotometer with a microplate reader (BMG Labtech, Ortenberg, Germany). The experiments were performed at least in triplicate. The results were transformed to relative values, as the percentage of the solvent control (assumed as 100%) to subtract any toxic effect of DMF.

A2780cis cells [2] = test system: A2780cis cells; set-up: method as in doi:10.1016/j.ica.2016.11.021; conditions: MTT, 72 h, reposted from previous paper; cited from earlier work
Toledo-cis cells [3] = test: MTT cellular viability assay, Toledo-cis; type: cell-based, human; conditions: for RF (IC50 Toledo-cis/IC50 Toledo): Resistance factor defined as IC50(resistant)/IC50(sensitive); for IC50: Toledo-cis, MTT, 72 h
Protocol: as §1

Toledo cells [4] = test system: Toledo cells; set-up: method as in doi:10.1016/j.ica.2016.11.021; conditions: cited from earlier work
Toledo-cis cells [5] = test system: Toledo-cis cells; set-up: method as in doi:10.1016/j.ica.2016.11.021; conditions: MTT, 72 h, reposted from previous paper; cited from earlier work
human lymphocytes [6] = test system: human lymphocytes; set-up: method as in doi:10.1016/j.ica.2016.11.021; conditions: MTT, 72 h, reposted from previous paper; cited from earlier work
human lymphocytes [7] = test: MTT cellular viability assay, normal lymphocytes; type: cell-based; conditions: for times less toxic for normal lymphocytes in comparison to cisplatin: relative to cisplatin; for IC50: Lymphocytes, MTT, 72 h
Protocol: The buffy coat fraction of peripheral blood from healthy donors was purchased from the Regional Blood Bank in Lodz, Poland. Mononuclear blood cells were isolated using Lympho-Sep tubes (Biological Industries, Israel). Lymphocytes were cultured in RPMI-1640 medium (Biological Industries, Israel) supplemented with 10% heat-inactivated fetal bovine serum, phytohemaglutinin M solution (PHA-M, Biological Industries), 5 mM Hepes, and 50 µg/mL gentamycin. The cancer cells were seeded in 24-well plates, with 1 mL of cell suspension per well, in the following densities: A2780—10^4 cells/mL; […] Lymphocytes were seeded in 48-well plates, 0.5 mL of cell suspension per well, at −2 × 10^5 cells/mL. The cultures were left overnight to adapt. The next day, the tested compounds were added, pre-dissolved in DMF, and then in a complete culture medium, at concentrations two-fold higher than the final ones. The resulting solutions were added to cell cultures to obtain the demanded concentration. Stock solutions of the compounds were freshly made before every experiment. The final concentration of the solvents in culture medium was 0.2% v/v. […] Then the culture medium was removed, and the purple formazan crystals were dissolved in DMSO. The absorbance was measured at 540 nm on a Spectrostar Nano spectrophotometer with a microplate reader (BMG Labtech, Ortenberg, Germany). The experiments were performed at least in triplicate. The results were transformed to relative values, as the percentage of the solvent control (assumed as 100%) to subtract any toxic effect of DMF.

A2780 cells [8] = test system: A2780 cells; set-up: method as in doi:10.1016/j.ica.2016.11.021; conditions: cited from earlier work
A2780 and A2780cis cells [9] = test: Annexin V apoptosis assay (flow cytometry); type: cell-based, human; conditions: 2 h and 4 h incubation, compared to untreated cells
Protocol: The apoptotic cells were identified by flow cytometry using the Annexin-V/FITC (BDBiosciences, San Diego, CA, USA) assay according to the manufacturer’s instructions. […] PI only stains the nuclei of damaged cells with permeable plasma membranes. Briefly, the cells were incubated with tested compounds for 2 and 4 h. After incubation, the cells were washed twice with cold PBS and then resuspended in 100 μL of binding buffer, containing 2 μL of FITC conjugated annexin-V and 10 μg mL^−1 of PI (Becton-Dickinson, San Jose, CA, USA). Then, the preparations were incubated at room temperature, protected from light, for 15 min. Fluorescence was measured immediately after staining by flow cytometry using FL1 (green, annexin-V) and FL3 (red, PI) standard fluorescent filters.

A2780 and A2780cis cells [10] = test: Mitochondrial potential loss measurement (MitoTracker Red, flow cytometry); type: cell-based, human; conditions: 2 h and 4 h incubation
Protocol: The loss of mitochondrial transmembrane potential (ΔΨm) occurs early during apoptosis and is often considered as a marker of apoptosis activated by the mitochondrial pathway. MitoTracker Red (Invitrogen, Waltham, MA, USA) dye was used as a probe for ΔΨm, which accumulates in the active mitochondria of living cells: 50 nM, 20 min incubation, at RT. The reduction of Δ Ψm was detected by flow cytometry as a decrease in red fluorescence of the dye in treated cells as compared to untreated cells.

A2780 cells [11] = test: MTT cellular viability assay, A2780; type: cell-based, human; conditions: 72 h
Protocol: (§2) Cell lines A2780 (human ovarian carcinoma, ECACC cat. No. 93112519), A2780cis (subline resistant to cisplatin, ECACC cat. No. 93112517), Toledo (human diffuse large cell lymphoma, ATCC CRL-2631TM), and Toledo-cis (cisplatin-resistant subline obtained from Toledo in our laboratory) were cultured in RPMI-1640 medium (Biological Industries, Kibbutz Beit-Haemek, Israel) supplemented with 10% heat-inactivated fetal bovine serum, 5 mM Hepes, and 50 µg/mL gentamycin. All cell lines were maintained in a humidified incubator, at 37 °C and 5% CO2. The cell lines A2780 and A2780cis were grown as monolayers, and cultures were detached with trypsin and renewed every 3–4 days. Toledo and Toledo-cis were grown in suspension; the cultures were renewed every 3–4 days. The Toledo cell line was kindly provided by Prof. Piotr Smolewski from the Department of Experimental Hematology, Medical University of Lodz, ul Ciołkowskiego 2, 93–510 Łódź, Poland, on the conditions of collaboration. […]
(§3) The cancer cells were seeded in 24-well plates, with 1 mL of cell suspension per well, in the following densities: A2780—10^4 cells/mL; A2780cis—1.5 × 10^4 cells/mL; and Toledo and Toledo-cis—5 × 10^4 cells/mL. […] The absorbance was measured at 540 nm on a Spectrostar Nano spectrophotometer with a microplate reader (BMG Labtech, Ortenberg, Germany). […]

Toledo cells [12] = test: MTT cellular viability assay, Toledo; type: cell-based, human; conditions: 72 h
Protocol: as §2, §3

[13] = test system: panel of cancer cells and human lymphocytes; test: MTT cellular viability assay, all tested cell lines; type: cell-based; conditions: range over all tested cell lines, 72 h, read-out: IC50 values towards all tested cell lines
Protocol: as §2, §3

human topoisomerase I = target: T1, human topoisomerase I (Homo sapiens, UniProt P11387); test: Topoisomerase I drug screening (plasmid based), gel electrophoresis; type: biochemical; conditions: scDNA + topo1; tested compounds 10-20 µM, camptothecin 100 µM
T1 construct: purchased TopoGen, Buena Vista, CO, USA
T1 sequence (P11387 1-765): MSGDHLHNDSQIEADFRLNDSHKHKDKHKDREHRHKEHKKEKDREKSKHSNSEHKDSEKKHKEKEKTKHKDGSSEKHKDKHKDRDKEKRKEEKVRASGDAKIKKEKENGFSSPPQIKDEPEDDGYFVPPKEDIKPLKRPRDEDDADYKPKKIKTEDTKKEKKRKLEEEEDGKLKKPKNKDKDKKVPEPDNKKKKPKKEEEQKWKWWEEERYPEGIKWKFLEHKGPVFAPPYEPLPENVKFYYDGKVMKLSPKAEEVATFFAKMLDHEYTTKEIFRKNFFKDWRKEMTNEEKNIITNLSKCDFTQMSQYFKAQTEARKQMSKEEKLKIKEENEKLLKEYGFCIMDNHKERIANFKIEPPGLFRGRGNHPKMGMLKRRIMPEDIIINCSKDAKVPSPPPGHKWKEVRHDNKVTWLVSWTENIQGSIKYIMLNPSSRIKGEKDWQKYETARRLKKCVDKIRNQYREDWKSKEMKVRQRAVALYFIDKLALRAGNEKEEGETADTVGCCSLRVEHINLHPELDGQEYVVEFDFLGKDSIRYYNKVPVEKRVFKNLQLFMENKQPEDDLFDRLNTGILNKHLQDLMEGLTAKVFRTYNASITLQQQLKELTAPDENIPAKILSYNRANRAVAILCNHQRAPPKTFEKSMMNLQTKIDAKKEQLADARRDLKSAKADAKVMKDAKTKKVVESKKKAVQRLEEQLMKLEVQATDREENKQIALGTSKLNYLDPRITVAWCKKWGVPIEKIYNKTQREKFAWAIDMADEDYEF
Protocol: The test procedure was carried out according to the manufacturer′s instructions (Topoisomerase I Drug Screening Kit(plasmid based) TopoGen/Topoisomerase II Drug Screening Kit (plasmid based) (TopoGen, Buena Vista, CO, USA). A reaction mixture with appropriate concentrations of water and buffer and 1–0.5 mL of DNA (plasmid) was prepared. Then, the tested compounds dissolved in DMSO were added. A solvent control test was also performed. Finally, an enzyme in the indicated amount was added to the mixture. The whole was incubated at 37 °C for 30 min. Then, the reaction was stopped by adding 2 μL of detergent-SDS (sodium dodecyl sulfate). Proteinase K solution (50 μg/mL) was then added and incubated at 37 °C for 15 min. After that time, a loading buffer (bromophenol blue and glycerol) was added to the samples and then applied to a 1% agarose gel. Electrophoresis was carried out in TAE (Tris Acetate-EDTA) buffer, which was obtained by mixing 40 mM Tris Acetate, 1 mM EDTA, and diluting with water. It was carried out for 4–5 h at 2 V/cm. For the Topo I assay, two types of gel were prepared: non-EB (Figure 8A) and EB gel (Figure 8B). Non-EB gels were stained with EB (0.5 ug/mL) for 15–30 min and then destained in water or buffer for 15 min prior to photodocumentation. […]

[14] = MTT, 72 h, reposted from previous paper
[15] = A2780, MTT, 72 h, reposted from previous paper

Compound	RF (IC50 A2780cis/IC50 A2780) (A2780cis cells [1])	IC50 (A2780cis cells [2]) [µM]	RF (IC50 Toledo-cis/IC50 Toledo) (Toledo-cis cells [3])	IC50 (Toledo cells [4]; [14]) [µM]	IC50 (Toledo-cis cells [5]) [µM]	IC50 (human lymphocytes [6]) [µM]	times less toxic for normal lymphocytes in comparison to cisplatin (human lymphocytes [7]) [times]	IC50 (A2780 cells [8]; [15]) [µM]	percentage of Ann-V positive cells (A2780 and A2780cis cells [9])	loss of mitochondrial membrane potential (A2780 and A2780cis cells [10])	further results
COC1(c2ccccc2)Oc2ccccc2C(=O)C1=N.COC1(c2ccccc2)Oc2ccccc2C(=O)C1=N.[Cl][Ru][Cl] (stereo not drawn) [134 (2), cis-dichlorobis(3-imino-2-methoxyflavanone)ruthenium(II)]	1.8	4.6 ± 0.2	5.8	0.5 ± 0.1	2.9 ± 0.2	3.4 ± 0.3	3	2.5 ± 0.2	–	–	–
CCOC1(c2ccccc2)Oc2ccccc2C(=O)C1=N.CCOC1(c2ccccc2)Oc2ccccc2C(=O)C1=N.[Cl][Ru][Cl] (stereo not drawn) [138 (3), cis-dichlorobis(3-imino-2-ethoxyflavanone)ruthenium(II)]	0.8	1.5 ± 0.4	4.6	0.6 ± 0.04	2.8 ± 0.1	1.6 ± 0.1	7	1.8 ± 0.1	–	–	–
N.N.[Cl][Pt][Cl] [Cisplatin (1), cis-diamminedichloroplatinum (II), reference compound]	84	16.8 ± 1.5	17	0.5 ± 0.07	8.3 ± 0.6	0.2 ± 0.1	–	0.2 ± 0.1	did not cause similar changes	much lower influence	RF (IC50 Toledo-cis/IC50 Toledo) (Toledo-cis cells [3]; listed as cisplatin): about 17; IC50 (Toledo cells [4]): < 1 µM; IC50 (A2780 cells [8]; A2780, text value): < 1 µM
Nc1c(-c2ccccc2)oc2ccccc2c1=O [Ligand, 3-aminoflavone, reference compound]	–	–	–	–	–	–	–	–	–	–	IC50 (A2780cis cells [1]; Homo sapiens): > 100 µM; IC50 (Toledo-cis cells [3]; Homo sapiens): > 100 µM; IC50 (A2780 cells [11]; Homo sapiens): > 100 µM; IC50 (Toledo cells [12]; Homo sapiens): > 100 µM; IC50 (human lymphocytes [7]; Homo sapiens, Lymphocyte): > 100 µM
Nc1c(-c2ccccc2)oc2ccccc2c1=O.Nc1c(-c2ccccc2)oc2ccccc2c1=O.[Cl][Pt][Cl] [TCAP(4), trans-dichlorobis(3-aminoflavone)platinum(II)]	2.3	–	1.4	–	–	–	60	–	did not cause similar changes	much lower influence	IC50 (A2780cis cells [1]): 15.1 ± 0.6 µM; IC50 (Toledo-cis cells [3]): 12.6 ± 1.2 µM; IC50 (A2780 cells [11]): 6.5 ± 0.3 µM; IC50 (Toledo cells [12]): 8.8 ± 0.8 µM; IC50 [13]: 6.5 to 15.1 µM; IC50 (human lymphocytes [7]): 11.9 ± 0.7 µM
CC[C@@]1(O)C(=O)OCc2c1cc1n(c2=O)Cc2cc3ccccc3nc2-1 [camptothecin]	–	–	–	–	–	–	–	–	–	–	inhibition of topoisomerase I / DNA band pattern (human topoisomerase I): presence of open circular DNA

— PMC8306828 (International Journal of Molecular Sciences, 2021)
